# Assay results reported in a melting point compilation (Tetko et al.; mined from patent text by program, amines drawn as free bases though some values may be those of a salt).
row,Compound,melting point [°C]
1,COc1ccccc1CNC(=O)C(=O)NCCc1ccccn1,118 to 119
2,Cn1nnnc1SCC(=O)C12CC3CC(CC(C3)C1)C2,112 to 113
3,CON=C(Cl)c1ccccc1OCc1ccc(Cl)cc1Cl,91 to 92
4,CNc1nc2ccc(Cl)cc2c2nc(-c3ccco3)nn12,166 to 168
5,Cc1c(-c2ccccc2)c(N2CC[C@H](N(C)C)C2)c2oc(N3CC(C)(O)C3)nc2c1C#N,167 to 169
6,N#Cc1ccc(OCC(O)CN2CC3CC(C2)CN(C(=O)Oc2ccc(F)cc2)C3)cc1 (configuration not stated),145 to 146
7,COc1ccc(C(O)Cc2ccccn2)cc1OC1CCCC1 (configuration not stated),94 to 96
8,COc1cc(COc2nc(-c3ccccc3)ncc2C(=O)O)ccc1OCc1nc(-c2ccco2)oc1C,163 to 164
9,CC12CCC(O)CC1=CCC1C2CCC2(C)C(n3nccn3)=CCC12 (configuration not stated),176 to 177
10,Cc1nccc2[nH]c(=O)ccc12,235 to 237
11,CCC1(CC)C(=N)N(c2ccc(C#N)c(C(F)(F)F)c2)C(=S)N1C,167 to 168
12,CC(C)c1cc([N+](=O)[O-])ccc1OCC1CO1 (configuration not stated),60 to 62
13,CN(C)C(=O)c1cccnc1S(N)(=O)=O,188 to 191
14,O=C(NCc1nccs1)c1cc(N2CCN(Cc3ccc(F)cc3)C2=O)n[nH]1,272 to 274
15,NC(=O)c1ccc(F)c2c1CC(N)CO2 (configuration not stated),229
16,N#Cc1cccc(CN2C(=O)c3ccccc3C2=O)c1,147 to 149
17,CC1=Nc2ccc(CO)cc2C(=O)C1,249 to 252
18,COC1CCC2(C)C(CCC3C2CCC2(C)C(C(C)=O)CCC32)C1 (configuration not stated),125 to 126
19,c1cc(-c2csc(Cc3ncc[nH]3)n2)ccn1,178 to 180
20,COc1ccc2c(CCNCC#N)c[nH]c2c1,80
21,O=S(=O)(c1ccncc1)C1CCNCC1,88 to 91
22,COC(=O)C1=CC(=O)C(C)(c2ccccc2)O1 (configuration not stated),60 to 62
23,O=C(NCc1ccccc1[N+](=O)[O-])C1Cc2ccccc2N1S(=O)(=O)c1ccc(-c2ccc(F)cc2F)cc1 (configuration not stated),99 to 102
24,CCCc1nc2c(N)nc3ccccc3c2n1CCOCCCS(=O)(=O)C(C)C,176 to 177
25,Cc1cn(-c2cccc(C(=O)CC(=O)Nc3cc(-c4ccc(F)cc4)ccc3NC(=O)OC(C)(C)C)c2)cn1,124
26,CCCCS(=O)(=O)Nc1ccc(OCc2ccc3ccccc3n2)c(C#N)c1,158 to 160

row,Compound,melting point [°C]
1,N#Cc1nn(-c2c(Cl)cc(C(F)(F)F)cc2Cl)c(N)c1-c1cc(Cl)cc(Cl)c1,228 to 230
2,COCCNC(=O)c1c(O)c2cnc(-c3ccccc3)nc2n(CCOC)c1=O,150 to 154
3,COP(=O)(NC1C(=O)N2C(C(=O)OCc3ccccc3)=C(C=CN(C)C)CSC12)OC (configuration not stated),126 to 128
4,CC(OC(N)=O)c1cc2c3ccccc3n(C)c(=O)n2n1 (configuration not stated),216 to 221
5,CSc1ccc(C(=O)c2cc(C)cc3c2NC(=O)C3)cc1,176 to 178
6,Cc1[nH]c(=O)ccc1C(=O)c1ccco1,258 to 260
7,CC(=O)N1CCN(c2cc(-c3cnc4c(c3)N(Cc3cc(Cl)ccc3C(F)(F)F)CCN4)ccn2)CC1,241
8,O[Si](Cn1cncn1)(c1ccc(F)cc1)c1ccc(F)cc1,130 to 131
9,COC(=O)CCC(C)C(=O)O (configuration not stated),97 to 99
10,CCCC(=O)c1cnc2ccc(O)cc2c1Cl,157 to 160
11,Clc1c2ccccc2nc2c1cnn2-c1ccccn1,153 to 156
12,CC/C(=C\Cn1oc(=O)[nH]c1=O)c1cccc(OCc2nc(-c3ccc(C(F)(F)F)cc3)oc2C)c1,66 to 67
13,COc1ccc(CCNc2ncnc3c(F)ccc(F)c23)cc1C,162 to 169
14,CS(=O)(=O)c1ccc(-n2nc(C(F)(F)F)nc2-c2ccc(Br)cc2)cn1,141 to 143
15,CCOc1ccc([N+](=O)[O-])c(C=C[N+](=O)[O-])c1OCc1ccccc1,110
16,CC(C)Oc1ccc(CCCOc2cc(CCC(=O)O)n(C)n2)c(OCc2ccc(C(F)(F)F)cc2)c1,88 to 89
17,CSc1ccc(C=CC(N)=NO)s1,70 to 71
18,Fc1ccc(OC2CN(CCc3c[nH]c4ccccc34)C2)cc1,111 to 113
19,COCCOc1ccc(-c2ccc3c(c2)C=C(C(=O)Nc2ccc(CN(C)C4CCOCC4)cc2)CCS3(=O)=O)cc1,227 to 231
20,Fc1cccc(Cl)c1COc1cccnc1NC(=S)Nc1ccccc1,143 to 145
21,CC(C)OC(=O)c1cnc(C(=O)O)cn1,149 to 152
22,O=[N+]([O-])c1ccccc1N=Nc1ccccc1,139 to 141
23,CCOC(=O)Cc1nn(CC(=O)Nc2cc(C(F)(F)F)ccc2Br)c(=O)c2ccccc12,160
24,CN(CCOc1ccc2ccc(N)nc2n1)C(=O)OC(C)(C)C,170
25,CCOC(=O)C1=C(N)NC2=C(C(=O)CCC2)C1c1cccc(C(=O)OCC)c1 (configuration not stated),234
26,Cc1cc(C(=CNc2ccc(O)cc2)C(=O)c2ccccc2)on1,73 to 74

row,Compound,melting point [°C]
1,C=C(C)COc1cc(C)c(NC(C)=O)c(C)c1C,149 to 150
2,NS(=O)(=O)c1ccc(NC(=O)Nc2ccc(Br)cc2)cc1,269 to 271
3,Cc1cc(Cl)nnc1-c1cccc([N+](=O)[O-])c1,169 to 171
4,Cc1cccc(-c2nc(N)sc2-c2ccnc(-c3ccc(C(=O)N4CCOCC4)cc3)c2)n1,158 to 160
5,Oc1ccc(OCCCCI)cc1,51 to 53
6,Cc1cccc(SCc2c(C(C)C)nc(C(C)C)c(CO)c2-c2ccc(F)cc2)c1,92 to 93
7,CCOC(=O)C(Cc1ccc(-c2cccc(N(C)C(=O)Nc3ccc(N(C)C)cc3)c2)cc1)Nc1ccccc1C(=O)c1ccccc1 (configuration not stated),75
8,C[C@H](Cc1ccc2oc(C(=O)O)cc2c1)NC[C@H](O)c1csc(C(F)(F)F)n1,168 to 171
9,O=C(CCl)NCc1c(O)ccc2c1CCCC2=O,196 to 199
10,O=C1NC(=O)C(Cc2ccc(OCCN3c4ccccc4Sc4ccccc43)cc2)S1 (configuration not stated),68 to 70
11,COc1cccc2c(=O)c3c(O)cc(OCC(O)CCl)cc3oc12 (configuration not stated),184
12,C=CCCCc1ccc(C=CC(=O)c2ccc(OCC=C(C)C)cc2)c(OCC(=O)O)c1,116 to 118
13,COc1ccc(-c2cc(C(F)F)nn2-c2ccc(S(N)(=O)=O)cc2)cc1I,135 to 137
14,C=C(Nc1nc(-c2ccccc2)c(-c2nc3ccccc3c(=O)n2-c2ccc(C)cc2)s1)c1ccco1,231 to 232
15,CCn1cc(C(=O)O)c(=O)c2cc(F)c(N3Cc4ccc(C(=O)OC)cc4C3)c(F)c21,264 to 267
16,CCC(=O)OC(CC)c1nc2c(C(F)(F)F)cccc2c(O)c1C(=O)Nc1ccccn1 (configuration not stated),204
17,CC(=O)Nc1c(C(=O)c2cccc(C(=O)O)c2)[nH]c2cc(Cl)ccc12,> 290
18,CNC(=O)C1CC(=O)N(Cc2ccccc2)C1 (configuration not stated),82.5 to 83
19,O=C1NC2=C(C=CCC2)S(=O)(=O)c2cc(C(F)(F)F)ccc21,240 to 241
20,Brc1ccc2scnc2c1,104 to 106
21,Cc1ccc(NC(=O)N=C2CCCN2C)cc1,136 to 137
22,CS(=O)(=O)c1ccc(Br)c([N+](=O)[O-])c1,126
23,O=C(Nc1ccc(C(=O)N2CCc3sc(Cc4ccccn4)nc3-c3ccccc32)cc1)c1ccccc1-c1ccccc1,215 to 218
24,Cc1oc(C)c(C(=O)OC2CC(C)(C)N(CC#N)C(C)(C)C2)c1C,88 to 89
25,Cc1cc(O)cc(N(C)C)c1,67 to 68
26,CCCNC(=O)N(Cc1ccc(Cl)cc1)C1CCCC1,103 to 105

row,Compound,melting point [°C]
1,CC(C)(C)OC(=O)N1CC(CC(=O)CC(=O)OCc2ccc([N+](=O)[O-])cc2)C2NC(=O)C21 (configuration not stated),107 to 110
2,CCCNC(=O)C(C#N)=C1Nc2ccccc2O1,215 to 220
3,Cc1cccc(-c2n[nH]cc2-c2ccc(F)c(-c3cn4c(n3)S(=O)CC4)c2)n1 (configuration not stated),140 to 144
4,FC(F)(F)c1ccc2c(c1)N(CC1CN3CCC1CC3)c1ccccc1S2 (configuration not stated),150
5,O=C(O)c1ccc(-c2ccc(Cl)s2)nc1,> 260
6,CCCC(CCC)n1ccc(=O)c2c(Cl)cc(C)nc21,82 to 85
7,FC(F)(F)c1ccc(-c2oncc2CCl)cc1,99 to 100
8,CCCCC(CO)Nc1ccc([N+](=O)[O-])cc1C(=O)NCc1ccc2c(c1)OCO2 (configuration not stated),112 to 115
9,O=C(CCC1c2ccccc2-c2ccccc21)N[C@@H](Cc1ccccc1)C(=O)O,194 to 195
10,O=C(O)Cc1cccc(F)c1OCCc1ccccc1,74 to 75
11,N#Cc1ccc(-c2cn(-c3ccc(C#N)cc3)c(CC3(O)C=CC=CN3)n2)cc1 (configuration not stated),167 to 175
12,O=C1OCCN1c1ccc(NCCO)c([N+](=O)[O-])c1,184
13,CCCCOC(=O)c1ccc2c(C(=O)c3ccc(OCCN4CCCCC4)cc3)c(-c3ccc(O)cc3)sc2c1,87 to 90
14,COc1ccc(-c2ncnc(-c3ccc(C(F)(F)F)cc3F)c2N)c(O)c1,100 to 103
15,COCC1(C)CCOc2ccc(/C=C/c3ccc(C(=O)O)cc3)cc21 (configuration not stated),209 to 210
16,NCc1cccc(-c2cnc(-c3ccc(Cl)c(Cl)c3)[nH]2)c1,> 250
17,Cc1nc2cc(C(F)(F)F)ccc2n1NC(=O)c1ccc(Cl)c(S(N)(=O)=O)c1,193 to 195
18,CN1CCCc2c1cc[nH]c2=O,260
19,CCOC(=O)C(CCCCCCCCCCCCC(C(=O)O)C1CC1)C1CC1 (configuration not stated),36.9 to 38.2
20,Oc1ccc(-c2cc3cc(O)cc(CBr)c3o2)cc1,337 to 339
21,CC(C)c1ccc2c(c1)c(Sc1ccccc1)c(CCC(=O)O)n2Cc1ccc(Cl)cc1,149 to 150
22,CCOC(=O)c1cn(C2CC2)c2nc(Sc3ccc(C)cc3)c(F)cc2c1=O,186 to 187
23,CS(=O)(=O)Nc1cccc(C=C2SC(=S)NC2=O)c1,260 to 265
24,CCCc1nc2ccc(N(C)C)nn2c1S(N)(=O)=O,215 to 217
